This note sets out measurements from patent US20100056526A1, “HETEROMONOCYCLIC COMPOUND AND USE THEREOF” (Takeda Pharmaceutical Company Limited, priority 2006, published 2010).

The target in test [1] is T1, human AT1 receptor (Homo sapiens, UniProt P30556).
T1 construct: expressed in transfected cells; host or cells: CHO-K1
T1 sequence (P30556 1-359): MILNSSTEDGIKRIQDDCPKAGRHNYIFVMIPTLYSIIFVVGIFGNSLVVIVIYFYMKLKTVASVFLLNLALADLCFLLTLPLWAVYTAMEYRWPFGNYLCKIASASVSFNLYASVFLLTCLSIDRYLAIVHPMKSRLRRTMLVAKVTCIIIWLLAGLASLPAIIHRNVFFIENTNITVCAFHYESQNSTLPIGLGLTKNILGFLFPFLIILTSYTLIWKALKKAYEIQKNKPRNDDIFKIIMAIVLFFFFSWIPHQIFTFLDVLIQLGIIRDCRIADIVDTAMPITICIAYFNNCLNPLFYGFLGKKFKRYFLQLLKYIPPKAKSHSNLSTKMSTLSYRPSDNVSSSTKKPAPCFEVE
Description: Binding assay using human AT1 receptor-expressing CHO-K1 cell membrane fraction ([125I]-angiotensin II). Particulars: 22.5 pM [125I]-angiotensin II, 9 μg AT1 membrane, 1 hr room temperature; read-out: AT1 receptor binding inhibitory action (IC50 (nM)). As for the experimental part:
The membrane fraction for human AT1 receptor binding assay was prepared as follows. CHO-K1 cell capable of stable expression of human AT1 receptor was cultured, recovered, suspended in homogenize buffer (10 mM NaHCO3 (pH 7.4), 5 mM EDTA, 1×Complete EDTA free) [manufactured by Roche, Switzerland], and homogenized. The homogenate was centrifuged at low-speed (900×g, 10 min, 4° C.), and the supernatant was recovered and ultracentrifuged (90,000×g, 1 hr, 4° C.). The supernatant was discarded, and the pellets were resuspended in resuspension buffer (50 mM Tris (pH 7.4), 1 mM EDTA, 1×Complete EDTA free).
The binding assay was performed in the presence of 22.5 pM [^125I]-angiotensin II [manufactured by PerkinElmer, USA], 9 μg of AT1 membrane and test compound in 100 μL (total reaction volume) of reaction buffer (50 mM Tris (pH 7.4), 10 mM MgCl2 supplemented or not supplemented with 0.3 mg/mL fatty acid-free bovine serum albumin [manufactured by Wako Pure Chemical Industries, Ltd., Japan]). The reaction mixture was incubated in 96 well polypropylene plate for 1 hr at room temperature, and the reaction was quenched by rapid filtration (96 well cell harvester) through a GF/C filter treated with wash buffer (50 mM Tris (pH 7.4)). Subsequently, the filter was washed 5 times with 0.3 mL of ice-cooled wash buffer. The filter was air-dried, and [^125I]-angiotensin II binding radioactivity was assayed with Top Count scintillation counter. Total binding was measured in the presence of 1% DMSO and nonspecific binding was measured in the presence of 1 μM CV-11974. The binding data was analyzed by GraphPad Prism program and the IC50 value (compound concentration showing 50% of the maximum value of inhibition percent) of the test compound was calculated.

Test [2] has as its target T2, PPARγ (Homo sapiens, UniProt P37231).
T2 construct: expressed in transfected cells; host or cells: CHO-K1
T2 sequence (P37231 1-477 isoform P37231-2): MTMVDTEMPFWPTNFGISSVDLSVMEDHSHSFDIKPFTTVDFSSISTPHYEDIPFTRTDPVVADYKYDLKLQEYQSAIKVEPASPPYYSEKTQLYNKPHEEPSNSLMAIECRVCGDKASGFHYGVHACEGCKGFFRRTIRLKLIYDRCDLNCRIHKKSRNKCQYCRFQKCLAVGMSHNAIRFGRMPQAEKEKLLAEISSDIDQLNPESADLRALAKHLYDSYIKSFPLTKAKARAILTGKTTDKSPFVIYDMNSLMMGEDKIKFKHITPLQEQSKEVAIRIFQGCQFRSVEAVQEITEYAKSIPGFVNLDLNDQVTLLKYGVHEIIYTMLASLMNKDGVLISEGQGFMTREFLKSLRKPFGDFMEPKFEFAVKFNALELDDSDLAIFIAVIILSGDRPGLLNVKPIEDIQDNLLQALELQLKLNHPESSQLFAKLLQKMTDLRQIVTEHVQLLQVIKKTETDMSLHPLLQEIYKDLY
T2 sequence (P19793 1-462 partner): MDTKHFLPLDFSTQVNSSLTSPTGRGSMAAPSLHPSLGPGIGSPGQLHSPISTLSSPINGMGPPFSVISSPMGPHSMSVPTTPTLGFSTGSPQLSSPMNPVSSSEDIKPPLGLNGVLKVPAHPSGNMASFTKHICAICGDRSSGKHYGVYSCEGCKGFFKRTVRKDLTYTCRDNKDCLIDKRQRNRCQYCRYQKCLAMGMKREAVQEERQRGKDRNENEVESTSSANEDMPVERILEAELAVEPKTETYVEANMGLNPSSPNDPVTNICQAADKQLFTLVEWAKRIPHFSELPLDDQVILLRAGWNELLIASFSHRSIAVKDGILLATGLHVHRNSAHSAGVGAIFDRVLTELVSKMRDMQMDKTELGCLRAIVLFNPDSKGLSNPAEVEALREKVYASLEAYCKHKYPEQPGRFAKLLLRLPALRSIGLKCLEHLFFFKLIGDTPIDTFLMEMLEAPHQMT
Description: Evaluation of PPARγ activating action (luciferase reporter in PPARγ:RXRα:4ERPP/CHO-K1 cells). Type of test: cell-based. Particulars: CHO-K1, 24 h, read-out: PPARγ activating action (activation % (10^−6 M)). As for the experimental part: PPARγ:RXRα:4ERPP/CHO-K1 cells obtained in the following Reference Example 5 were cultured in F12 medium [manufactured by INVITROGEN, USA] containing 10% fetal bovine serum [manufactured by MOREGATE, Australia], seeded in a 96-well half area white plate [manufactured by Corning Coster Corporation, USA] at the density of 5×10^3 cells/well and cultured in a CO2 gas incubator at 37° C. overnight.
Then the medium was removed from the 96-well half area white plate, 45 μl of Ham's F12 medium containing 0.1% fatty acid-free bovine serum albumin (BSA) and 5 μl of test compound were added, and the cells were cultured in a CO2 gas incubator at 37° C. for 1 day. The medium was removed and 20 μl of PicaGene 7.5 [manufactured by TOYO INK MFG. CO., LTD.,.Japan] diluted 2-fold with HBSS (HANKS' BALANCED SALT SOLUTION) [manufactured by BIO WHITTAKER, USA] was added. After stirring, the luciferase activity was determined using 1420 ARVO Multilabel Counter [manufactured by PerkinElmer, USA].
The percent (%) was calculated from the luciferase activity of each test compound when the luciferase activity of the control compound (compound X: 5-[3-(4-{[2-(2-furyl)-5-methyl-1,3-oxazol-4-yl]methoxy}-3-methoxyphenyl)propyl]-1,3-oxazolidine-2,4-dione) (1 μM) was 100% and that of the test compound non-administration group was 0%.
A CHO-K1 cell cultured in a 150 cm^2 cell culture flask [manufactured by Corning Costar Corporation, USA] containing Ham's F12 medium [manufactured by INVITROGEN, USA] supplemented with 10% fetal bovine serum [manufactured by INVITROGEN, USA] was scraped by treating with 0.5 g/L trypsin-0.2 g/L EDTA (ethylenediaminetetraacetic acid) [manufactured by Life Technologies, Inc., USA], and then the cell was washed with PBS (Phosphate-buffered saline) [manufactured by INVITROGEN, USA], centrifuged (1000 rpm, 5 minutes) and suspended in PBS. Subsequently, DNA was introduced into the cell under the conditions shown below using GENE PULSER [manufactured by Bio-Rad Laboratories, USA].
Namely, to a cuvette having a 0.4 cm gap were added 8×10^6 cells and 10 μg of plasmid pVgRXR2-hPPARγ obtained in Reference Example 4 and 10 μg of reporter plasmid pGL3-4ERPP-TK neo obtained in Reference Example 3, which was subjected to electroporation at the voltage of 0.25 kV under the capacitance of 960 μF. Subsequently, the cell was transferred into a F12 medium containing 10% fetal bovine serum and cultured for 24 hours, and then the cell was scraped again and centrifuged, and then suspended in Ham's F12 medium containing 10% fetal bovine serum supplemented with 500 μg/ml of Geneticin [manufactured by INVITROGEN, USA] and 250 μg/ml of Zeocin [manufactured by INVITROGEN, USA]. The obtained suspension was diluted to the density of 10^4 cells/ml and inoculated in a 96-well plate [manufactured by Corning Costar Corporation, USA], which was cultured in a CO2 gas incubator at 37° C., whereby obtaining a Geneticin- and Zeocin-resistant transformant.
Subsequently, after the transformant cell line thus obtained was cultured in a 24-well plate [manufactured by Corning Costar Corporation, USA], a cell line in which the luciferase was expressed and induced, i.e., PPARγ:RXRα:4ERPP/CHO-K1 cell was selected by the addition of 10 μM pioglitazone hydrochloride.
In general terms: In a reporter assay the amount or activity of a reporter protein is the signal.

The mark [3] stands for this setting: test compound 10^−6 M, luciferase activity relative to control compound X (1 μM) = 100%, non-administration group = 0%.

Like-named read-outs stand apart in the source and are kept apart here.

In general, IC50 refers to the midpoint of a concentration-inhibition curve.

In the case of `CCCCc1nc(COC)n(CC(C)(C)C)c(=O)c1Cc1ccc(-c2ccccc2-c2noc(=O)[nH]2)cc1` [Example 51, 6-butyl-3-(2,2-dimethylpropyl)-2-(methoxymethyl)-5-{[2′-(5-oxo-4,5-dihydro-1,2,4-oxadiazol-3-yl)biphenyl-4-yl]methyl}pyrimidin-4(3H)-one], the IC50 in test [1] came to 1.5 nM. For the same molecule, in test [2] (setting [3]), the activation at 1 µM turned out to be 19.6%.
The like results for `CCCCc1nc(C)n(Cc2ccc(OC)cc2)c(=O)c1Cc1ccc(-c2ccccc2-c2noc(=O)[nH]2)cc1` [Example 58, 6-butyl-3-(4-methoxybenzyl)-2-methyl-5-{[2′-(5-oxo-4,5-dihydro-1,2,4-oxadiazol-3-yl)biphenyl-4-yl]methyl}pyrimidin-4(3H)-one] were, in that order, 1.5 nM and 55.1%.
As for `CCCCc1nc(C)n(Cc2nc3ccccc3s2)c(=O)c1Cc1ccc(-c2ccccc2-c2noc(=O)[nH]2)cc1` [Example 64, 3-(1,3-benzothiazol-2-ylmethyl)-6-butyl-2-methyl-5-{[2′-(5-oxo-4,5-dihydro-1,2,4-oxadiazol-3-yl)biphenyl-4-yl]methyl}pyrimidin-4(3H)-one], the IC50 in test [1] came to 2 nM. For the same molecule, in test [2] (setting [3]), the activation at 1 µM is 59.9%.
In the case of `CCCCc1nc(C)n(C(C)c2ccccc2)c(=O)c1Cc1ccc(-c2ccccc2-c2noc(=O)[nH]2)cc1` (centres unmarked) [Example 67, 6-butyl-2-methyl-5-{[2′-(5-oxo-4,5-dihydro-1,2,4-oxadiazol-3-yl)biphenyl-4-yl]methyl}-3-(1-phenylethyl)pyrimidin-4(3H)-one], the half-inhibitory concentration (IC50) in test [1] came out at 2 nM. Also, in test [2] (setting [3]), the activation at 1 µM stood at 49.4%.
In the same order, the values of `CCCCc1nc(C)n(Cc2ccc(OC)nc2)c(=O)c1Cc1ccc(-c2ccccc2-c2noc(=O)[nH]2)cc1` [Example 71, 6-butyl-3-[(6-methoxypyridin-3-yl)methyl]-2-methyl-5-{[2′-(5-oxo-4,5-dihydro-1,2,4-oxadiazol-3-yl)biphenyl-4-yl]methyl}pyrimidin-4(3H)-one] are 1.8 nM and 46.3%.
In the same order, the values of `CCCc1nc(C)n(CC2CCCCO2)c(=O)c1Cc1ccc(-c2ccccc2-c2noc(=O)[nH]2)cc1` (centres unmarked) [Example 81, 2-methyl-5-{[2′-(5-oxo-4,5-dihydro-1,2,4-oxadiazol-3-yl)biphenyl-4-yl]methyl}-6-propyl-3-(tetrahydro-2H-pyran-2-ylmethyl)pyrimidin-4(3H)-one] are 1.6 nM and 62.9%.
For the molecule `CCCc1nc(C)n(-c2ccc(OC(C)C)cc2)c(=O)c1Cc1ccc(-c2ccccc2-c2noc(O)n2)cc1` [Example 88, 3-(4-isopropoxyphenyl)-2-methyl-5-{[2′-(5-oxo-4,5-dihydro-1,2,4-oxadiazol-3-yl)biphenyl-4-yl]methyl}-6-propylpyrimidin-4(3H)-one], in test [1], the IC50 was 1.7 nM. Besides, the activation at 1 µM in test [2] (setting [3]) came out at 31.2%.
The like results for `CCCCc1nc(C)n(CCc2ccc(OC)cc2)c(=O)c1Cc1ccc(-c2ccccc2-c2noc(=O)[nH]2)cc1` [Example 94, 6-butyl-3-[2-(4-methoxyphenyl)ethyl]-2-methyl-5-{[2′-(5-oxo-4,5-dihydro-1,2,4-oxadiazol-3-yl)biphenyl-4-yl]methyl}pyrimidin-4(3H)-one] were, in that order, 1.8 nM and 41.5%.
Regarding `CCCCc1nc(CF)n(Cc2ccccc2)c(=O)c1Cc1ccc(-c2ccccc2-c2noc(=O)[nH]2)cc1` [Example 103, 3-benzyl-6-butyl-2-(fluoromethyl)-5-{[2′-(5-oxo-4,5-dihydro-1,2,4-oxadiazol-3-yl)biphenyl-4-yl]methyl}pyrimidin-4(3H)-one], the concentration for half-maximal inhibition (IC50) in test [1] amounted to 1.5 nM. The activation at 1 µM in test [2] (setting [3]) turned out to be 50.2%.
Turning to `CCCCc1nc(CC)n(Cc2ccccc2)c(=O)c1Cc1ccc(-c2ccccc2-c2noc(=O)[nH]2)cc1` [Example 105, 3-benzyl-6-butyl-2-ethyl-5-{[2′-(5-oxo-4,5-dihydro-1,2,4-oxadiazol-3-yl)biphenyl-4-yl]methyl}pyrimidin-4(3H)-one], the IC50 in test [1] came to 1.9 nM. In addition, the activation at 1 µM in test [2] came to 64.1%.
